Key:
pigs = experiment: conception rate of pigs fertilized by boars administered 25-hydroxy vitamin D3; format: in vivo, pig; conditions: pigs fertilized by boars that were administered 25-hydroxy vitamin D3
boars = experiment: administration of 25-hydroxy vitamin D3 to boars: quality of semen; format: in vivo, pig; conditions: administered to boars

## C=C1CC[C@H](O)C/C1=C/C=C1\CCC[C@]2(C)[C@@H]([C@H](C)CCCC(C)(C)O)CC[C@@H]12 [25-hydroxy vitamin D3]
pigs
  conception rate in pigs: increases the conception rate in pigs
boars
  quality of boar semen: improves the quality of boar semen

— patent US20100227840A1, “USE OF 25-HYDROXY VITAMIN D3 TO IMPROVE MALE ANIMAL FERTILITY” (priority 2005, published 2010)
